Results reported in patent US20230181604A1, “Use of Mitochondria-Targeted Antioxidants to Treat Severe Inflammatory Conditions” (Mitotech S.A., priority 2020, published 2023).

Tests used:
mice [1] = experiment: Lethal shock by toxic dose of C12 TPP, survival; format: in vivo
Method: (§1) SkQ1 protected mice in three different mouse models of severe critical conditions. The first critical condition was induced by injection of a suspension of isolated liver mitochondria into the mouse tail vein. The second critical condition was induced by the sharp cold shock of placing mice for 90 minutes in a −20° C. environment. The third condition was induced by administration of a toxic concentration the of lipophilic cation C12 TPP, whose formula is shown below
In the next experiment a critical condition in mice was induced by i/v injection of a toxic dose of C12 TPP (34 μmole/kg). Considering the membrane-penetrating and membrane-disruptive properties of C12 TPP, it can be expected that the lethal effect of i/v injection of C12 TPP occurs due to disruption of cells in the vascular system, including vascular endothelial cells.
This set of experiments was continued using the lethal shock was caused by toxic concentrations of C12 TPP. Two dosages of C12 TPP were used: 34 μmol/kg C12 TPP (FIG. 12) or 42 μmol/kg C12 TPP (FIG. 13). In the data shown in FIG. 12, SkQ1 (1.5 μmol/kg dosage) was administered to each of the mice both at 4.5 hours before C12 TPP and 0.5 hours after C12 TPP administration. Without SkQ1, about 80% of mice died within 32 hours after the injection of C12 TPP; with SkQ1 the death rate was reduced to 40%. In the experiment described in FIG. 13, the amount of C12 TPP was increased to 42 μmol/kg. […] In the experimental group, SkQ1 was administered once within 1 hour after C12 TPP treatment. In the SkQ1 treatment group ⅓ of the animals survived (FIG. 13).

mice [2] = experiment: Shock by injection of isolated liver mitochondria into the tail vein, survival; format: in vivo; conditions: for Mortality after mitochondria injection: C12 TPP instead of SkQ1
Method: as §1
The injection of mitochondria had no effect on survival during the first day (100% of the animals survived). However only 60% of animals survived the next two days. This survival rate persisted for at least 16 days. […] In this experiment a strong reduction in weight was clearly observed in the first 3 days after injection of mitochondria. Then the surviving animals began to recover—mortality disappeared, and body weight began to increase. In a control experiment, C12 TPP was used instead of SkQ1. In the case of C12 TPP, 20% of mice died in the first half day after the injection of mitochondria, and in two days the mortality had grown to 80%.
(§2) In the next series of experiments, it was investigated whether animals can be rescued by SkQ1 treatment administered simultaneously with the challenge or even after the challenge.

mice [3] = experiment: Cold shock (90 minutes at −20° C.), survival; format: in vivo
Method: as §1
In the next experiment, critical condition was caused by a completely different stress, namely by cold shock resulting from incubating mice for 1.5 hours at −20° C. It can be seen in FIG. 8 that cold shock led to dramatic increase of mortality between days 5 and 8, resulting in a survival rate of 40%.
as §2

IL-6 = IL-6 concentration in blood after shock; format: in vivo, mice; conditions: intravenous injection of liver mitochondria, i/p SkQ1
[4] = SkQ1 bioavailability study, LCMS/MS blood concentration after i/v, i/p, s/c injection; format: in vivo; conditions: Wistar rats, 2 mg\kg
Method: The bioavailability of SkQ1 was determined after using different methods of administration. SPF category Wistar rats were used. SkQ1 concentration in blood samples was measured using an LCMS/MS method SkQ1 was administered at 2 mg\kg, and blood samples were taken at the indicated time points. Administration was by intravenous injection (FIG. 1A), intraperitoneal injection (FIG. 1B), or subcutaneous injection (FIG. 1C). Total SkQ1 dose was calculated as area under the curve (AUC) as shown at left of FIG. 1D. SkQ1 bioavailability was normalized to that of i/v administration and is shown at the right side of FIG. 1D.

TNFα = TNFα concentration in blood after shock; format: in vivo, mice; conditions: intravenous injection of liver mitochondria, i/p SkQ1
[5] = tested on: human vascular endothelial cells; experiment: VE-cadherin study of endothelial cell-to-cell contacts after SIRS/sepsis patient serum (western blot, fluorescence microscopy); format: cell-based
Method: The mitochondrially targeted antioxidants disclosed herein can prevent deconstruction of cell-to-cell contacts between human vascular endothelial cells in culture when these cells are treated with blood serum samples from patients with SIRS or sepsis. Results of a VE-cadherin western blot are presented on FIG. 3, wherein a cell culture of human endothelial cells is pretreated with different dosages of SkQ1, then exposed to serum from patients diagnosed with sepsis. […] In FIG. 4, blood samples are taken from patients with diagnosed SIRS, with the patients age 18-75 years. A cell culture of human endothelial cells is pretreated with different dosages of SkQ1, then treated with 5-10% serum from the SIRS blood samples. At the top of FIG. 4, the VE-cadherin (fluorescence microscopy) c resembles the VE-cadherin at the bottom of FIG. 4 (SIRS serum+200 nM SkQ1). Actin and nucleus visualizations in FIG. 4 correspond with VE-cadherin observations.
Blood samples were taken from patients ages 18-75 years with diagnosed SIRS. Cell cultures of human endothelial cells were pretreated with different amounts of SkQ1, after which the cultures were treated with 5-10% serum from the SIRS blood samples. A one hour VE-cadherin study was performed by fluorescent microscopy followed by western-blot analysis. Results of the experiment are presented on FIG. 3 (western blot) and FIG. 4 (microscopy).

CD-1 mice [6] = experiment: 28-day chronic toxicity with 14-day recovery, subcutaneous; format: in vivo
Method: SkQ1 solution 28-day chronic toxicity with 14-day recovery was studied in SPF male and female CD-1 mice at SkQ1 dosage of 0.6, 2.5, and 10 mg/kg administered subcutaneously, once daily. At 2.5 mg SkQ1/kg no adverse effects were identified (NOAEL) either at the end of the dosing or at the end of recovery. […] Peritonitis stemmed from the local ulcerative action of the formulation, while the adverse reactions of systems/organs were apparently the consequences of peritonitis.

CD-1 mice [7] = experiment: Acute toxicity, subcutaneous administration; format: in vivo; conditions: for LD50: subcutaneous
Excerpt: The acute toxicity of SkQ1 solution administered by subcutaneous administration was studied in SPF male and female CD-1 mice.

[8] = tested on: H5N1 influenza virus (strain chicken/Kurgan/5/2005); format: in vivo, balb\c mice
[9] = SkQ1 blood concentration with subcutaneous slow-release infusion pumps; format: in vivo; conditions: Wistar rats, slow-release infusion pumps introduced subcutaneously
Method: In the next experiment SkQ1 presence in the blood was prolonged by using slow-release infusion pumps introduced subcutaneously into Wistar rats. Blood samples from these animals were taken at timepoints indicated on FIG. 2, and SkQ1 concentration was measured as described above. […] This experiment also models administration of SkQ1 using intravenous infusion.

[10] = SkQ1 injected one minute after shock stimulus
[11] = H5N1-infected mice, i/p SkQ1 from day 2

With CCCCCCCCCCCC[P+](c1ccccc1)(c1ccccc1)c1ccccc1 [C12 TPP, reference compound] the “Mice died after C12 TPP” value (mice [1]; 34 μmol/kg C12 TPP without SkQ1, within 32 hours) was “about 80%”, the “Mortality caused by C12 TPP” value (mice [1]; 34 μmol/kg i/v, within 1 day) was 90% and the “Death after C12 TPP” value (mice [1]; 42 μmol/kg C12 TPP, control group, within 1.5 hours) was “all 12 animals died”. The “Mortality after mitochondria injection” value (mice [2]; first half day after injection) was 20%, the “Mortality after mitochondria injection” value (mice [2]; in two days) was 80% and the “Mortality after cold shock” value (mice [3]; premedication and treatment, by the sixth day) was 100%.

In the case of SkQ1, the “Increase of blood concentration of IL-6” value (IL-6) is reported as “almost completely suppressed”, the “SkQ1 bioavailability for intraperitoneal administration, of the bioavailability after intravenous administration” value ([4]; i/p, AUC normalized to i/v) is reported as 35% and the “Persistence of SkQ1 in blood after injection” value ([4]; i/v, i/p or s/c injection) is reported as “rapidly disappears from the blood”. The “SkQ1 bioavailability for subcutaneous administration, of the bioavailability after intravenous administration” value ([4]; subcutaneous, AUC normalized to i/v) was 44%, the “Effect on mortality caused by C12 TPP” value (mice [1]; 34 μmol/kg C12 TPP, SkQ1 pretreatment) was “prevented” and the “Death rate after C12 TPP with SkQ1” value (mice [1]; 34 μmol/kg C12 TPP, SkQ1 1.5 μmol/kg 4.5 hours before and 0.5 hours after) was 40%. The “Fraction of animals survived” value (mice [1]; 42 μmol/kg C12 TPP, SkQ1 once within 1 hour after C12 TPP) was “⅓”, the “Mortality from injection of mitochondria” value (mice [2]; [10]) was “significantly reduced” and the “Survival after mitochondria injection” value (mice [2]; treatment five days before and five days after mitochondria injection) was 90%. The “Mortality from cold shock” value (mice [3]; [10]) was “significantly reduced”, the “Death of animals after cold shock” value (mice [3]; premedication and after-shock treatment) was “completely prevented” and the “Increase of blood concentration of TNFα” value (TNFα) was “almost completely suppressed”. The “VE-cadherin western blot intensity versus control” value ([5]; 200 nM SkQ1 and sepsis patient serum) was “about equal intensity to the control”, the “VE-cadherin fluorescence microscopy versus control” value ([5]; SIRS serum + 200 nM SkQ1) was “resembles” and the “Deconstruction of cell-to-cell contacts between endothelial cells” value ([5]; cells treated with serum from patients with SIRS or sepsis, SkQ1 pretreatment) was “prevented”. The “Animals died (due to peritonitis)” value (CD-1 mice [6]; 10 mg/kg subcutaneous once daily, 28 days) was “≈ 15%”, the “NOAEL (no adverse effects identified)” value (CD-1 mice [6]; 28 days subcutaneous once daily, 14-day recovery) was 2.5 mg SkQ1/kg and the “Findings in mice surviving toxic doses” value (CD-1 mice [7]; 14 days after administration of toxic doses) was “signs of hepato- and nephrotoxicity”. The “Cause of lethal effect of high doses” value (CD-1 mice [7]; first hours after subcutaneous administration) was “respiratory arrest”, the LD50 (CD-1 mice [7]; female CD-1 mice) was 26.8 (23-31) mg SkQ1/kg and the LD50 (CD-1 mice [7]; male CD-1 mice) was 31 (20.5-37.2) mg SkQ1/kg. The “Death caused by influenza virus infection” value [8, 11] was “delayed”, the “Development of bad health condition” value [8, 11] was “delayed” and the “Protection against critical condition” value ([8]; intraperitoneal SkQ1 1000 nmoles/kg and 3000 nmoles/kg) was “protects against the critical condition”. The “SkQ1 concentration in the blood with slow release” value [9] was “can be stabilized”.
